pIC50: −log10 of the molar value. Values joined by “and” are separate entries in the source; they are usually repeats but may differ in a detail not shown here. Equal values may be shown once. Each block holds one compound with its values, some of them ahead of it.
Test system: 876862-298-R-J1-PDC complex spheroids, viability % test/control
Experiment: Anticancer human tumor 876862-298-R-J1-PDC patient-derived endometrial carcinoma cell line growth inhibition [CLK]
Conditions: for viability, T/C: stronger effect = lower value
Source text: A high-throughput screen of multi-cell type tumor spheroids was designed to identify active combinations of […] and targeted small molecules. Complex spheroids include a stromal component modeled by human endothelial cells (HUVEC) and fibroblasts modeled by human mesenchymal stem cells (MSCs). The concentration ranges selected for each drug and investigational agent were based upon clinically achievable concentrations if the clinical Cmax of the agent was known.
Compounds. The drugs and investigational agents: cirtuvivint (SM08502; NSC835563), CC-671 (NSC850746), vemurafenib (NSC761431), tapotoclax (NSC804041), sotorasib (NSC818433), adagrasib (NSC831453), MRTX-1133 (NSC836407), BAY2416964 (NSC825713), copanlisib (NSC816437), inavolisib (NSC800729), abemaciclib (NSC768073), osimertinib (NSC779217), entinostat (NSC756642), eltanexor (KPT-8602, NSC794443), venetoclax (NSC766270), ceralasertib (NSC777638), bortezomib (NSC756655), olaparib (NSC753686), talazoparib (NSC767125), alisertib (NSC759677), peposertib (NSC802822), gemcitabine (NSC613327), 5-fluorouracil (NSC19893), SN-38 (NSC673596), oxaliplatin (NSC266046), paclitaxel (NSC125973), and doxorubicin (NSC123127), were obtained from the National Cancer Institute (NCI) Developmental Therapeutics Program Chemical Repository. The FDA-approved anticancer drug set is available from the Developmental Therapeutics Program at https://dtp.cancer.gov/organization/dscb/obtaining/available plates.htm. […] The stock solutions were prepared in dimethyl sulfoxide (DMSO, Sigma-Aldrich, St. Louis, MO, cat. D2650), except for the platinum complexes which were prepared in saline (Quality Biological, Gaithersburg, MD, cat. 114-055-101), at 800-fold the tested concentration and stored at -70 degrees C prior to their use. All drugs and investigational agents were tested over a range starting from a high concentration at or near the clinical Cmax and decreasing in half-log increments. If the clinical Cmax for an agent had not been determined, the highest concentration tested was 10 microM.
Cell Culture. All cells were maintained in an incubator at 37 degrees C and 5% CO2 with 95% humidity. The PDC lines were cultured according to standard operating procedures established by the NCI PDMR. Briefly, all PDCs were thawed and cultured in Matrigel-coated flasks prepared with a working solution of 1X Ham's F-12 nutrient mix, without supplementation (Invitrogen, Waltham, MA, cat. 11765054), 100 U/mL penicillin-streptomycin (Invitrogen, cat. 15140122), and 2.5% Matrigel (Corning Inc., Corning, NY, cat. 354248) for the first three passages. The 947758-054-R-J2-PDC line was cultured in 6B/Colon 1A media, which includes advanced DMEM/F-12 (Thermo Fisher Scientific, cat. 12634028), 10 mM HEPES (Thermo Fisher Scientific, cat. 15630080), 1X GlutaMAX supplement (Thermo Fisher Scientific, cat. 35050061), 0.1 mg/mL primocin (InvivoGen, cat. ant-pm-2), 10% defined fetal bovine serum, heat inactivated (HyClone Laboratories Inc., cat. SH30070.03HI), 1.25 mM N-Acetyl-L-cysteine (Sigma-Aldrich, cat. A9165), 10 mM nicotinamide (Sigma-Aldrich, cat. N0636), 1X B-27 supplement (Thermo Fisher Scientific, cat. 17504044), 1X N-2 supplement (Thermo Fisher Scientific, cat. 17502048), and 10 microM Y-27632 dihydrochloride (Tocris Bioscience, cat. 1254). The 876862-298-R-J1-PDC was cultured in 6E media, which includes all 6B/Colon 1A media components plus 50% L-WRN conditioned media (ATCC, cat. CRL-3276), 50 ng/mL recombinant human EGF recombinant protein (hEGF; Thermo Fisher Scientific, cat. PHG0311), 10 ng/mL recombinant human fibroblast growth factor 10 (hGFG-10; PeproTech, cat. 100-26), 1 ng/mL recombinant human fibroblast growth factor 2 (hFGF-2; PeproTech, cat. 100-18B), and 1 µM prostaglandin E2 (PGE2; Tocris, cat. 2296). The 227483-062-R1-J1-PDC line was cultured in Panc media, containing all 6E components except hFGF-2, with the addition of 500 nM SB-431542 (Selleckchem, cat. S1067) and 10 nM gastrin (Tocris, cat. 3006). […]
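Also: spheroids exposed to drugs for 7 days before readout.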
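For viability, T/C in this document: 100% = DMSO vehicle control wells.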

pIC50 (curve of compound): > 7.50
Structure (SMILES): CC(=O)O[C@H]1C(=O)[C@@]2(C)[C@H]([C@H](OC(=O)c3ccccc3)[C@]3(O)C[C@H](OC(=O)[C@H](O)[C@@H](NC(=O)c4ccccc4)c4ccccc4)C(C)=C1C3(C)C)[C@]1(OC(C)=O)CO[C@@H]1C[C@@H]2O
viability, T/C (compound 0.0316 µM): 25.9% and 26.5%
viability, T/C (compound 0.1 µM): 23.7% and 22.9%
viability, T/C (compound 0.316 µM): 23% and 20%
viability, T/C (compound 1 µM): 25.4% and 25.1%
viability, T/C (compound 3.16 µM): 29.2% and 23.1%
viability, T/C (compound 10 µM): 32.2% and 26.1%

pIC50 (curve of compound): 5.00 and 5.27
Structure (SMILES): COc1ccc([C@@H](O)c2cc(-c3ncnc4cc(N5CCOCC5)ccc34)c(F)cc2Cl)nn1
viability, T/C (compound 0.0316 µM): 109% and 103%
viability, T/C (compound 0.1 µM): 88.9% and 106%
viability, T/C (compound 0.316 µM): 108% and 101%
viability, T/C (compound 1 µM): 98.5% and 89.7%
viability, T/C (compound 3.16 µM): 73.1% and 69%
viability, T/C (compound 10 µM): 49.9% and 28.5%

pIC50 (curve of compound): > 7.50
Structure (SMILES): COc1cccc2c1C(=O)c1c(O)c3c(c(O)c1C2=O)CC(O)(C(=O)CO)CC3OC1CC(N)C(O)C(C)O1 (stereo not drawn)
viability, T/C (compound 0.0316 µM): 41.8% and 33.2%
viability, T/C (compound 0.1 µM): 16.9% and 13.5%
viability, T/C (compound 0.316 µM): 7.66% and 6.87%
viability, T/C (compound 1 µM): 7.07% and 7.16%
viability, T/C (compound 3.16 µM): 0.89% and 0.78%
viability, T/C (compound 10 µM): 4.03% and 4%

Structure (SMILES): C=CC(=O)N1CCN(c2nc(=O)n(-c3c(C)ccnc3C(C)C)c3nc(-c4c(O)cccc4F)c(F)cc23)C(C)C1 (stereo not drawn) + CN1CCN(c2cc(C(=O)Nc3cc4cc(-c5cnn(C)c5)ccc4cn3)ccn2)CC1
pIC50 (curve of first compound, second compound 0.0316 µM): < 5.00
pIC50 (curve of first compound, second compound 0.1 µM): 5.76
pIC50 (curve of first compound, second compound 0.316 µM): > 7.50
pIC50 (curve of first compound, second compound 1 µM): > 7.50
pIC50 (curve of first compound, second compound 3.16 µM): > 7.50
pIC50 (curve of first compound, second compound 10 µM): > 7.50
viability, T/C (second compound 0.0316 µM, first compound 0.0316 µM): 80.7%
viability, T/C (second compound 0.0316 µM, first compound 0.1 µM): 90.6%
viability, T/C (second compound 0.0316 µM, first compound 0.316 µM): 91%
viability, T/C (second compound 0.0316 µM, first compound 1 µM): 96.3%
viability, T/C (second compound 0.0316 µM, first compound 3.16 µM): 99%
viability, T/C (second compound 0.0316 µM, first compound 10 µM): 58.4%
viability, T/C (second compound 0.1 µM, first compound 0.0316 µM): 57.9%
viability, T/C (second compound 0.1 µM, first compound 0.1 µM): 47.9%
viability, T/C (second compound 0.1 µM, first compound 0.316 µM): 49.9%
viability, T/C (second compound 0.1 µM, first compound 1 µM): 57.7%
viability, T/C (second compound 0.1 µM, first compound 3.16 µM): 45.7%
viability, T/C (second compound 0.1 µM, first compound 10 µM): 30.3%
viability, T/C (second compound 0.316 µM, first compound 0.0316 µM): 5.51%
viability, T/C (second compound 0.316 µM, first compound 0.1 µM): 4.35%
viability, T/C (second compound 0.316 µM, first compound 0.316 µM): 4.39%
viability, T/C (second compound 0.316 µM, first compound 1 µM): 4.13%
viability, T/C (second compound 0.316 µM, first compound 3.16 µM): 4.65%
viability, T/C (second compound 0.316 µM, first compound 10 µM): 2.26%
viability, T/C (second compound 1 µM, first compound 0.0316 µM): 0.86%
viability, T/C (second compound 1 µM, first compound 0.1 µM): 1.32%
viability, T/C (second compound 1 µM, first compound 0.316 µM): 1.28%
viability, T/C (second compound 1 µM, first compound 1 µM): 2.28%
viability, T/C (second compound 1 µM, first compound 3.16 µM): 4.17%
viability, T/C (second compound 1 µM, first compound 10 µM): 2.16%
viability, T/C (second compound 3.16 µM, first compound 0.0316 µM): 1.53%
viability, T/C (second compound 3.16 µM, first compound 0.1 µM): 2.07%
viability, T/C (second compound 3.16 µM, first compound 0.316 µM): 2.2%
viability, T/C (second compound 3.16 µM, first compound 1 µM): 2.58%
viability, T/C (second compound 3.16 µM, first compound 3.16 µM): 3.3%
viability, T/C (second compound 3.16 µM, first compound 10 µM): 2.74%
viability, T/C (second compound 10 µM, first compound 0.0316 µM): 0.76%
viability, T/C (second compound 10 µM, first compound 0.1 µM): 1.59%
viability, T/C (second compound 10 µM, first compound 0.316 µM): 1.62%
viability, T/C (second compound 10 µM, first compound 1 µM): 2.38%
viability, T/C (second compound 10 µM, first compound 3.16 µM): 2.32%
viability, T/C (second compound 10 µM, first compound 10 µM): 2.42%

Source: PubChem BioAssay AID2060607 (Molecular Pharmacology Branch, DTP, NCI, 2025)
